Experimental data reported in US20040248775A1, “Methods for screening inhibitors of apoptosis” (Wyeth, priority 2003, published 2004).

Molecular target: T1, wild-type NALP1 (Homo sapiens, UniProt Q9C000)
T1 construct: to generate full-length NALP1 in frame with EGFP; expressed in transfected cells; host or cells: HeLa cells, transient transfection with the pEGFP-N3 based plasmid; S-100 extract used
T1 sequence (Q9C000 1-1473): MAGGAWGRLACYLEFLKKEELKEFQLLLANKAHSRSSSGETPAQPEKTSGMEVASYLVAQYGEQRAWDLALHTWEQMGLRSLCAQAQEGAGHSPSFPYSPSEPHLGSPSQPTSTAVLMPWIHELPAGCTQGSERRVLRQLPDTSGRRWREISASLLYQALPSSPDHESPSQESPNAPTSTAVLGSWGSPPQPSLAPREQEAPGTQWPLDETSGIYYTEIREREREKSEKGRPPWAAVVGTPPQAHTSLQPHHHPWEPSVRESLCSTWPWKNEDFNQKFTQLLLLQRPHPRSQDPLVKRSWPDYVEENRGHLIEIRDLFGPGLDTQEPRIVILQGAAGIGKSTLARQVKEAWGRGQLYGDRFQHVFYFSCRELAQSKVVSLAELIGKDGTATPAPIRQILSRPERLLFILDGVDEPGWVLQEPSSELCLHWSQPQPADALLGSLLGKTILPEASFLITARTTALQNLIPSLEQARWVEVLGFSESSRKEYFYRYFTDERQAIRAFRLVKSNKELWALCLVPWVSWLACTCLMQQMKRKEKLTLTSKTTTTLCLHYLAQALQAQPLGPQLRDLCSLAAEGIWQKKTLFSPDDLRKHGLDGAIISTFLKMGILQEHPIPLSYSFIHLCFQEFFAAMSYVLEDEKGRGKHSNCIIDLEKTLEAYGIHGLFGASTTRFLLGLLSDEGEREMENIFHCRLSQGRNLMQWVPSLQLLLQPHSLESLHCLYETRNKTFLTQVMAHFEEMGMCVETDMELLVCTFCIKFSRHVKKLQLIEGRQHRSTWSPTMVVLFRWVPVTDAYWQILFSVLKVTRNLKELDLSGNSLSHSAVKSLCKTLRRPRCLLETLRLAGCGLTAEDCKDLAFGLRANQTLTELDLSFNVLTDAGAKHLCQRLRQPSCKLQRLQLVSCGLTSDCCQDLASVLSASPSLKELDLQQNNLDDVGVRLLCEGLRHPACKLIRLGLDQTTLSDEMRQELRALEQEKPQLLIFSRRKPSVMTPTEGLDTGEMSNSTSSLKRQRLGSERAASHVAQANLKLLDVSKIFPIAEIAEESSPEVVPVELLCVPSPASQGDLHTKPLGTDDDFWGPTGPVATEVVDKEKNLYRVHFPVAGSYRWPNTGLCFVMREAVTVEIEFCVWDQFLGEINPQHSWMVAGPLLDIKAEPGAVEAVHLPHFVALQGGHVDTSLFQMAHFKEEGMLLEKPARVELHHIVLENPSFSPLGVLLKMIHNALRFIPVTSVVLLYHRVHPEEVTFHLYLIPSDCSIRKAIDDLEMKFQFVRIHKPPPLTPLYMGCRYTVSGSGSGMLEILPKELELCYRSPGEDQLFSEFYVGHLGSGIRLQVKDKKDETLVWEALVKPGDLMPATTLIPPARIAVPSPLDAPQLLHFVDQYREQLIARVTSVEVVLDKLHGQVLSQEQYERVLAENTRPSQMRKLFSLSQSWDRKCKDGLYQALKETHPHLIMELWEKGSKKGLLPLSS
Assay: Fluorimetric DEVDase (caspase-3) assay in HeLa cell extracts expressing wild-type NALP1-EGFP
Assay type: biochemical
Settings: 2 mM dATP, 2 mM MgCl2, 1 hour, Ac-DEVD-AMC substrate
Experimental: Cell extract preparation and fluorimetric assay of caspase activity. Preparation of cell extracts, dATP incubation and caspase-3 activities assays were performed as described by Liu et al. (1996). Briefly, HeLa cells were grown in DMEM, 10% FBS. Cells were plated in T175 flasks to 60% confluence. Control vector pEGFP or wild-type or NBS mutant NALP1-EGFP expression plasmids were transfected into HeLa cells using Lipofectamine Plus. Cells were collected in homogenization buffer (20 mM HEPES pH 7.5, 10 mM KCl, 1 mM sodium EDTA, […], 1 mM sodium EGTA, 0.1% CHAPS, 1 mM DTT, 0.1 mM PMSF and protease inhibitor cocktail tablets (Roche)), 24 hours after transfection. Cells were chilled on ice for 15 minutes and homogenized by douncing 30 times in a glass douncer. Samples were centrifuged at 1000×g for 10 minutes at 4° C. […] After 2 hours incubation, liberation of AMC (7-amino-4-methylcoumarin) from the substrate was monitored using excitation/emission wavelength pairs (λex/λem) of 380/460 nm using a SpectraFluor Plus instrument (Tecan). Triplicate samples were evaluated with or without specific inhibitors. […] Normalized data from multiple experiments were expressed as means±standard deviation. For each experiment, the expression of EGFP-tagged NALP1 proteins was analyzed by anti-GFP immunoblot and quantified by densitometry.

Q: For `Nc1ncnc2c1ncn2[C@H]1C[C@H](O)[C@@H](COP(=O)(O)OP(=O)(O)OP(=O)(O)O)O1` [dATP], which “DEVDase activity, extracts with wild-type NALP1” value is on record?
A: significantly elevated
